Values belong to the substance of their own block, whether it stands above or below them.
Assays:
[1] = molecular target: T1, C5aR1 (Homo sapiens, UniProt P21730); test: 125I-C5a binding to C5aR1 membranes; settings: up to a maximum concentration of 500 μM
T1 sequence (P21730 1-350): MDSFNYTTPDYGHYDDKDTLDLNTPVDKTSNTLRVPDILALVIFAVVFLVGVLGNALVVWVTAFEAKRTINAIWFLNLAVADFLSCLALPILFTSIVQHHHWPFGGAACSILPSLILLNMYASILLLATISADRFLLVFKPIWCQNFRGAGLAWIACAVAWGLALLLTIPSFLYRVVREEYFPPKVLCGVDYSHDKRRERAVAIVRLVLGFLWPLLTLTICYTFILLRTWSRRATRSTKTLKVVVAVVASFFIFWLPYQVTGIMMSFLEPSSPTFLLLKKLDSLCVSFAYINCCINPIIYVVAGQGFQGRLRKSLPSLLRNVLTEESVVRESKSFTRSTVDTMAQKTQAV

[2] = molecular target: T2, C3aR (Homo sapiens, UniProt Q16581); settings: up to a concentration of 100 μM, reference 27; cited from earlier work
T2 sequence (Q16581 1-482): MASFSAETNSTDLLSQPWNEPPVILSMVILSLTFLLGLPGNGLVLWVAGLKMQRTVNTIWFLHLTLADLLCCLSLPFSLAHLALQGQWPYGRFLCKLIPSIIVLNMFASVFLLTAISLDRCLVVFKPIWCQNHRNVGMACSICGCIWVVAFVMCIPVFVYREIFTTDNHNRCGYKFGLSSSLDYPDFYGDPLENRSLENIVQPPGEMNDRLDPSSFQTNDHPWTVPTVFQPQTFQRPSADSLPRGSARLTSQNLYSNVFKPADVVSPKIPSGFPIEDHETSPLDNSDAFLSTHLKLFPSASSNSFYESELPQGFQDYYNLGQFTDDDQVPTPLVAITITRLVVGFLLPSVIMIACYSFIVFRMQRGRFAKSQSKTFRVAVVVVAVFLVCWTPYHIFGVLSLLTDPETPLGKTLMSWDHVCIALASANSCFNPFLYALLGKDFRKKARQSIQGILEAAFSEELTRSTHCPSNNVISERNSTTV

[3] = test system: ERK1/2 activation in HMDM; test: ERK1/2 phosphorylation assay (Alphascreen Surefire) in HMDM; format: cell-based, human; settings: for inhibition of C5a-induced ERK1/2 activation in HMDM: 30 min pre-incubation, then C5a 5 nM for 10 min; for direct ERK1/2 activation in HMDM: peptide alone
Description: FIG. 5 is a graph showing that P32 and P59 inhibit C5a-induced ERK1/2 activation in HMDM. pERK quantified by Surefire ERK1/2 kit. Data is normalised to C5a 5 nM (100%) for each donor. Data are representative of at least three independent experiments HMDM donors performed in triplicate (n=3-5). Error bars represent SEM. **** P<0.0001 by one-way ANOVA followed by Dunnett's post hoc test.
ERK1/2 phosphorylation assays were performed using the Alphascreen Surefire ERK1/2 kit (Perkin Elmer) as per manufacturers' instructions. Briefly, HMDM were seeded at 50 000 cells/well in 96-well tissue culture plates (Nunc, Waltham, Mass., USA) and serum starved overnight. Ligands were prepared in serum-free media. P32 and P59 were pre-incubated with cells for 30 min at 37° C. and 5% CO2, prior to the addition of C5a (5 nM) for 10 min at 37° C. and 5% CO2. Media was then removed and cells lysed with lysis buffer for 10 min on a shaker, 4 μL of lysate was transferred to a white 384-well proxiplate plate (Perkin Elmer) and incubated in the presence of 7 μL of reaction mix. The plate was sealed with TopSeal-A, incubated for 2 h at 37° C. and measured on an M1000Pro plate reader (Tecan, Mannedorf, Switzerland).

[4] = test system: LPS stimulated HMDM; test: Cytokine release from LPS stimulated HMDM (ELISA); format: cell-based, human; settings: for IL-6 release from LPS stimulated HMDM / IL-10 release from LPS stimulated HMDM / TNFα release from LPS stimulated HMDM: 24 h after co-stimulation with LPS 10 ng/ml, peptides 0.1-100 μM; for IL-6 release from LPS stimulated HMDM in the presence of PMX53: C5a1 antagonist PMX53 10 μM pre-incubated 30 min
Description: FIG. 4 is a panel of graphs showing the testing P32 and P59 for effects on cytokine release from LPS stimulated HMDM. Measurement of human inflammatory cytokines IL-6 (4A, 4B), TNFα (4C, 4D) and IL-10 (4E, 4F) release from HMDM, 24 h after co-stimulation with LPS (10 ngml^−1) and C5a (0.1-100 nM), P32 or P59 (0.1-100 μM) with or without C5a1 antagonist PMX53 (10 μM) present. Cytokine release was quantified by ELISA. Data is representative of five independent HMDM donors performed in triplicate (n=5). CTRL represents non-stimulated HMDM. Data is normalised to LPS response (100%) for each donor. Error bars represent SEM. *P<0.05, ** P<0.01, *** P<0.001, **** P<0.0001 by one-way ANOVA followed by Dunnett's post hoc test or Sidak's post hoc test for comparisons+/−PMX53.
Briefly, HMDMs were seeded in 96 well tissue culture plates (Nunc) at 100 000 cells/well and allowed to adhere overnight at 37° C. and 5% CO2. The next day HMDMs were stimulated with E. coli derived LPS (10 ng ml^−1) only or LPS (10 ng ml^−1) and either C5a or C5a2 ligands at various concentrations (1-100 nM (C5a) or 0.1-100 μM (C5a2 ligands)). For testing cytokine release in the presence of C5a1 antagonist (PMX53), cells were pre-incubated with PMX53 at 10 μM for 30 min prior to addition of C5a or C5a2 ligands. Following ligand addition HMDMs were returned to 37° C. and 5% CO2 incubator and 24 h after stimulation supernatant was removed from cells and transferred to 96 well polypropylene microplate (Nunc) and stored at −20° C. till needed for assay. Quantification of cytokine release was performed using ELISA kits (BD OptEIA™) as per manufacturers' instructions (BD Biosciences, San Jose, Calif., USA).

inhibition of 125I-C5a binding to C5aR1 membranes, full concentration response [1]: dose-dependently inhibited
Substance: Ac-LIRLWR-OH [Peptide P59, Ac-LIRLWR-OH]
activity (agonist or antagonist) at C3aR [2]: no activity | inhibition of C5a-induced ERK1/2 activation in HMDM [3]: significantly inhibit | direct ERK1/2 activation in HMDM [3]: Neither P32 or P59 could induce ERK1/2 activation alone | IL-6 release from LPS stimulated HMDM [4]: only showed significant inhibition of IL-6 at 100 μM | IL-10 release from LPS stimulated HMDM [4]: no effect | TNFα release from LPS stimulated HMDM [4]: no effect | IL-6 release from LPS stimulated HMDM in the presence of PMX53 [4]: unaffected

inhibition of 125I-C5a binding to C5aR1 membranes, full concentration response [1]: dose-dependently inhibited
Substance: Ac-RHYPYWR-OH [Peptide P32, Ac-RHYPYWR-OH]
activity (agonist or antagonist) at C3aR [2]: no activity | inhibition of C5a-induced ERK1/2 activation in HMDM [3]: significantly inhibit | direct ERK1/2 activation in HMDM [3]: Neither P32 or P59 could induce ERK1/2 activation alone | IL-6 release from LPS stimulated HMDM [4]: significant inhibition of IL-6 release at two (10 and 100 μM) of the four doses tested | IL-10 release from LPS stimulated HMDM [4]: no effect | TNFα release from LPS stimulated HMDM [4]: no effect | IL-6 release from LPS stimulated HMDM in the presence of PMX53 [4]: unaffected

— patent publication US10280197B2, “Discovery of the first selective C5A receptor 2 (C5L2/C5AR2) ligands” (The Regents of the University of California, priority 2015, dated 2019)
